Experimental data published in the NIST ThermoML archive (doi:10.1016/j.jct.2013.11.003).

Conditions: Liquid, Transpiration method

COc1cccs1 [2-methoxythiophene]
Conditions | vapor or sublimation pressure [kPa]
278.1 K | 0.1302
281 K | 0.1585
283 K | 0.1804
285.9 K | 0.2284
287.8 K | 0.2708
290.7 K | 0.3244
292.7 K | 0.3939
295.7 K | 0.4587
297.6 K | 0.5406
300.6 K | 0.6383
302.6 K | 0.6976
305.6 K | 0.8682
307.6 K | 0.9894
310.6 K | 1.147
312.6 K | 1.336
312.7 K | 1.299
313.6 K | 1.366
315.6 K | 1.559
318.6 K | 1.83
321.7 K | 2.196
323.7 K | 2.471

COc1ccsc1 [3-methoxythiophene]
Conditions | vapor or sublimation pressure [kPa]
278.1 K | 0.089
281 K | 0.1105
283.9 K | 0.1366
286.8 K | 0.1662
289.7 K | 0.2094
292.6 K | 0.2646
295.7 K | 0.32
297.6 K | 0.3561
300.6 K | 0.4274
303.6 K | 0.5203
306.6 K | 0.6282
309.6 K | 0.7649
312.6 K | 0.9169
315.7 K | 1.078
318.7 K | 1.313
321.7 K | 1.536
324.7 K | 1.765
